# Patent US20250026748A1, “N-(5-SUBSTITUTED-[(1,3,4-THIADIAZOLYL) OR (THIAZOLYL)])(SUBSTITUTED)CARBOXAMIDE COMPOUNDS AND USE THEREOF FOR INHIBITING HUMAN POLYMERASE THETA” (Repare Therapeutics Inc., priority 2021, published 2025)
# Target: PolQ ATPase enzyme (1-894) (Homo sapiens (Human), UniProt O75417)
# Assay: Polθ ATPase enzymatic assay (0.5 nM enzyme concentration), ADP-Glo
# Assay type: biochemical
# Conditions: average IC50; 0.5 nM PolQ ATPase enzyme (1-894)
# How it was run: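 Enzyme (0.5 nM) pre-incubated 15 min at rt with 10-point inhibitor series in 50 mM Tris pH 7.5, 10% glycerol, 5 mM DTT, 10 mM MgCl2, 0.1 mg/ml BSA; reaction started with 20 nM fork DNA and 100 μM ATP, run 180 min at rt. ADP-Glo luminescence; IC50 from 4-parameter variable-slope fit.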
# Sequence of PolQ ATPase enzyme (1-894) (O75417 1-894): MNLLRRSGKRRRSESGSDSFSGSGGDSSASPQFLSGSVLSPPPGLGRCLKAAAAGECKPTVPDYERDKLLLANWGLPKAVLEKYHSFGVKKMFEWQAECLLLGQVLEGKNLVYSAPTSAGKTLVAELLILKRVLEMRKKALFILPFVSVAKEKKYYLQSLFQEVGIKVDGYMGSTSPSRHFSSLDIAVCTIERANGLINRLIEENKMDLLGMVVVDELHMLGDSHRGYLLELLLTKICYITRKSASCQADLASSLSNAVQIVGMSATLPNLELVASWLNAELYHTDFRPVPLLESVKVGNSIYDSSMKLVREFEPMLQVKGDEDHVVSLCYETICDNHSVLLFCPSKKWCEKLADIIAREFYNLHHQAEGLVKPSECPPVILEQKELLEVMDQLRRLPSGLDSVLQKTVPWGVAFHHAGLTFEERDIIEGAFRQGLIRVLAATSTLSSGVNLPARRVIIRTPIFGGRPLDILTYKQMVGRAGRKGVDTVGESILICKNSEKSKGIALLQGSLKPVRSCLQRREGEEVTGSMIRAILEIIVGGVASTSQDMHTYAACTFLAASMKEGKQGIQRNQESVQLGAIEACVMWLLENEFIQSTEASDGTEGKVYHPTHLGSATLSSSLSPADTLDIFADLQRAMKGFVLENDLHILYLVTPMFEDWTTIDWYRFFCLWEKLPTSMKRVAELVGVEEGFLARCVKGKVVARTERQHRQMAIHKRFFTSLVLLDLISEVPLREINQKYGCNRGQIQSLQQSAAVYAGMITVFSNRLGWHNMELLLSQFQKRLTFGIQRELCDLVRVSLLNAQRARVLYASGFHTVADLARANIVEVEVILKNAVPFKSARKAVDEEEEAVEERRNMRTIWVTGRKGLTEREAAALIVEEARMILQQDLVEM
row,IC50,Compound
1,2.1 nM,"COc1cnc(C(F)F)cc1-c1cc(N2CC3(C2)CC(C)(O)C3)ncc1C(=O)Nc1nnc(C#CC2CC2)s1 [Compound 130, N-(5-(cyclopropylethynyl)-1,3,4-thiadiazol-2-yl)-2′-(difluoromethyl)-6-(6-hydroxy-6-methyl-2-azaspiro[3.3]heptan-2-yl)-5′-methoxy-[4 4′-bipyridine]-3-carboxamide]"
2,1.7 nM,COc1cnc(C(F)F)cc1-c1cc(N2CC3(COC3)CC2=O)ncc1C(=O)Nc1nnc(C#CC2CC2)s1 [Compound 359]
3,< 0.25 nM,"COc1cnc(C(F)F)cc1-c1cc(-c2ccn(CS(C)(=O)=O)n2)ccc1C(=O)Nc1nnc(C#CC2CC2)s1 [Compound 124, N-(5-(cyclopropylethynyl)-1,3,4-thiadiazol-2-yl)-2-(2-(difluoromethyl)-5-methoxypyridin-4-yl)-4-(1-((methylsulfonyl)methyl)-1H-pyrazol-3-yl)benzamide]"
4,1.5 nM,COc1cnc(C(F)F)cc1-c1cc(-c2cnccn2)ncc1C(=O)Nc1nnc(C#CC2CC2)s1 [Compound 172]
5,2.9 nM,COc1cnc(C(F)F)cc1-c1cc(C2CC2)ncc1C(=O)Nc1nnc(C#CC2CC2)s1 [Compound 247]
6,< 0.25 nM,COc1cnc(C(F)F)cc1-c1cc(-n2ccc3occc3c2=O)ncc1C(=O)Nc1nnc(C#CC2CC2)s1 [Compound 439]
7,0.26 nM,COc1cnc(C(F)F)cc1-c1cc(C#CC2(O)CCOCC2)ncc1C(=O)Nc1nnc(C#CC2CC2)s1 [Compound 255]
8,< 0.25 nM,"COc1ccc(C(F)(F)F)cc1-c1cc(CC(=O)N(C)C)ncc1C(=O)Nc1nnc(C#CC2CC2)s1 [Compound 33, N-(5-(cyclopropylethynyl)-1,3,4-thiadiazol-2-yl)-6-(2-(dimethylamino)-2-oxoethyl)-4-(2-methoxy-5-(trifluoromethyl)phenyl)nicotinamide]"
9,< 0.25 nM,"COc1cnc(C(F)F)cc1-c1cc(N2CCN(C)CC2=O)ccc1C(=O)Nc1nnc(C#CC2CC2)s1 [Compound 109, N-(5-(cyclopropylethynyl)-1,3,4-thiadiazol-2-yl)-2-(2-(difluoromethyl)-5-methoxypyridin-4-yl)-4-(4-methyl-2-oxopiperazin-1-yl)benzamide]"
10,0.5 nM,COc1cnc(Cl)cc1-c1cc(-c2cn(C)nn2)ccc1C(=O)Nc1nnc(C#CC2CC2)s1 [Compound 300]
11,0.76 nM,COc1ccc(C(F)(F)F)cc1-c1cnccc1C(=O)Nc1nnc(C2CC2c2ccc(C#N)cc2)s1 (stereo not drawn) [Compound 30]
12,0.51 nM,COc1cnc(C(F)F)cc1-c1cnccc1C(=O)Nc1nnc([C@@H]2C[C@H]2c2ccc(C#N)cc2)s1 [Compound 274]
13,4.3 nM,COc1ncc(Cl)cc1-c1cnccc1C(=O)Nc1nnc(C#CC2CC2)s1 [Compound 344]
14,< 0.25 nM,COc1cnc(C(F)F)cc1-c1cc(C#CC2(O)CCS(=O)(=O)CC2)ccc1C(=O)Nc1nnc(C#CC2CC2)s1 [Compound 264]
15,2.9 nM,COc1cnc(C(F)F)cc1-c1cc(CCC2(O)CCS(=O)(=O)CC2)ccc1C(=O)Nc1nnc(C#CC2CC2)s1 [Compound 256]
16,< 0.25 nM,COc1cnc(C(F)F)cc1-c1cc(-n2nccc(C)c2=O)ncc1C(=O)Nc1nnc(C#CC2CC2)s1 [Compound 453]
17,0.35 nM,[2H]C([2H])([2H])N(C(=O)C1CC(C)(O)C1)c1ccc(C(=O)Nc2nnc(C#CC3CC3)s2)c(-c2cc(C(F)F)ncc2OC)c1 (stereo not drawn) [Compound 224]
18,< 0.25 nM,COc1cnc(C(F)F)cc1-c1cc(C#CC2(C(=O)N(C)C)CC2)ncc1C(=O)Nc1ncc(C#CC2CC2)s1 [Compound 210]
19,0.35 nM,COc1cnc(C(F)F)cc1-c1cc(C#CCN2CCS(=O)(=O)CC2)ccc1C(=O)Nc1nnc(C#CC2CC2)s1 [Compound 242]

row,IC50,Compound
1,< 0.25 nM,COc1cnc(C(F)F)cc1-c1cc(-c2ccncn2)ncc1C(=O)Nc1nnc(C#CC2CC2)s1 [Compound 135]
2,26 nM,COc1cnc(C(F)F)cc1-c1cc(C(=O)N(C)C)ccc1C(=O)Nc1ncc(C#CC2CC2)s1 [Compound 257]
3,15 nM,COc1cnc(C(F)F)cc1-c1cc(N2CCCC2=O)ncc1C(=O)Nc1ncc(C#CC2CC2)s1 [Compound 191]
4,1.2 nM,COc1ccc(C(F)(F)F)cc1-c1cn(C)c(=O)cc1C(=O)Nc1nnc(C#Cc2cc(C)[nH]n2)s1 [Compound 102]
5,0.25 nM,COc1cnc(C(F)F)cc1-c1cc(-c2cn(C)c(C)n2)ccc1C(=O)Nc1nnc(C#CC2CC2)s1 [Compound 412]
6,< 0.25 nM,"COc1cnc(C(F)F)cc1-c1cc(-c2cc[nH]n2)ncc1C(=O)Nc1nnc(C#CC2CC2)s1 [Compound 145, N-(5-(cyclopropylethynyl)-1,3,4-thiadiazol-2-yl)-2′-(difluoromethyl)-5′-methoxy-6-(1H-pyrazol-3-yl)-[4,4′-bipyridine]-3-carboxamide]"
7,0.98 nM,COc1cnc(C(F)F)cc1-c1cc(N(C)C(=O)C2(C)CC2)ccc1C(=O)Nc1nnc(C#CC2CC2)s1 [Compound 221]
8,0.6 nM,Cc1cnc(Cl)cc1-c1cnccc1C(=O)Nc1nnc(C#CC2CC2)s1 [Compound 299]
9,< 0.25 nM,COc1cnc(C(F)F)cc1-c1cc(C#CC2CCCOC2)ncc1C(=O)Nc1nnc(C#Cc2cc(C)[nH]n2)s1 (stereo not drawn) [Compound 146]
10,0.94 nM,COc1cnc(Cl)cc1-c1cc(-c2cn[nH]c2)ccc1C(=O)Nc1nnc(C#CC2CC2)s1 [Compound 312]
11,0.33 nM,COc1cnc(C(F)F)cc1-c1cc(N2CCCCC2=O)ncc1C(=O)Nc1nnc(C#CC2CC2)s1 [Compound 192]
12,2 nM,COc1cnc(C(F)F)cc1-c1cc(N2CCC(C)(O)CC2)ncc1C(=O)Nc1nnc(C#CC2CC2)s1 [Compound 121]
13,< 0.25 nM,COc1cnc(C(F)F)cc1-c1cc(N2CC[C@@H]3C[C@@H]3C2=O)ncc1C(=O)Nc1nnc(C#CC2CC2)s1 [Compound 384]
14,18 nM,COc1cnc(C(F)F)cc1-c1cc(N2CCOCC2)ccc1C(=O)Nc1nnc(C#CC2CC2)s1 [Compound 239]
15,4.8 nM,COc1cnc(Cl)cc1-c1cnccc1C(=O)Nc1nnc(C2C[C@H]2c2ccc(C#N)nc2)s1 (stereo partly drawn) [Compound 318]
16,0.29 nM,"CN(C)C(=O)Cn1cc(-c2cc(C(F)(F)F)ccc2Cl)c(C(=O)Nc2nnc(C#CC3CC3)s2)cc1=O [Compound 34, 5-(2-chloro-5-(trifluoromethyl)phenyl)-N-(5-(cyclopropylethynyl)-1,3,4-thiadiazol-2-yl)-1-(2-(dimethylamino)-2-oxoethyl)-2-oxo-1,2-dihydropyridine-4-carboxamide]"
17,< 0.25 nM,COc1ccc(C(F)(F)F)cc1-c1cn(CC(=O)N(C)C)c(=O)cc1C(=O)Nc1nnc(C#Cc2cc(C)[nH]n2)s1 [Compound 81]
18,> 100 nM,COc1cnc(C(F)F)cc1-c1cc(-c2nnc(C)o2)ccc1C(=O)Nc1nc(C#CC2CC2)cs1 [Compound 374]
19,1.9 nM,COc1cnc(C(F)F)cc1-c1cn(C)c(=O)cc1C(=O)Nc1nnc(C2C[C@H]2c2ccc(C#N)cc2)s1 (stereo partly drawn) [Compound 322]

row,Compound,IC50
1,COc1cnc(C(F)F)cc1-c1cc(Nc2ccn(C)n2)ccc1C(=O)Nc1nnc(C#CC2CC2)s1 [Compound 166],0.52 nM
2,COc1cnc(C(F)F)cc1-c1cc(-c2ccn(C)n2)ncc1C(=O)Nc1nnc(C#Cc2cc(C)[nH]n2)s1 [Compound 161],< 0.25 nM
3,COc1cnc(C(F)F)cc1-c1cc(-c2ccn(C)n2)ncc1C(=O)Nc1nc(C)c(C#CC2CC2)s1 [Compound 157],115 nM
4,COc1cnc(C(F)F)cc1-c1cc(N(C)c2nnc(C)o2)ccc1C(=O)Nc1ncc(C#CC2CC2)s1 [Compound 119],23 nM
